Source: patent US7691862B2, “Method and composition for treating periodontal disease” (Regena Therapeutics LC, priority 2003, dated 2010)
Like-named read-outs stand apart in the source and are kept apart here. Marks after values point to notes of the source that are not given here.

What was measured:
[1] = system: periodontal pockets of patients with moderate-to-advanced periodontitis; assay: Randomized double-blind placebo-controlled study: change in periodontal pocket probing depth after scaling, root planing and curettage; assay type: in vivo, human
Experimental: 1.1 Overall Study Design and Plan This was a randomized, double-blind, single-center, multiple-dose, parallel-group, placebo-controlled study. At baseline, patients presenting at Periodontal Specialists of Ames for the treatment of periodontitis were screened for the study. Patients were assessed using medical histories, dental histories, blood pressure, pulse, pregnancy tests (if female), periapical radiographs and periodontal examinations. Patients who met all of the inclusion and exclusion criteria, appeared in good health other than periodontitis, and who had documented moderate-to-advanced periodontitis with at least four destructive periodontal-diseased pockets (ranging from 5 to 12 mm in depth) were eligible for study participation. Each patient underwent a gross debridement, following which, he/she was randomized to one of four treatment groups:
Patients randomized to receive doxycycline (Groups B and C) were administered a loading dose of doxycycline 100 mg BID for one day and then instructed to take doxycycline 100 mg QD for nine consecutive days; patients in Groups A and D received matching doxycycline placebo for ten days.
On the last day of doxycycline/placebo administration, patients reported to the clinical research facility and underwent (under local anesthesia) dental sub-gingival scaling, root planing, and curettage on one side of the mouth. Following completion of these procedures, patients randomized to misoprostol (Groups C and D) received an application of a misoprostol paste (10 ug/site) and those randomized to placebo (Groups A and B) received placebo paste. Patients were instructed to apply the paste to each quadrant four times daily for the next week. One week later, patients returned to the clinical research facility and underwent sub-gingival scaling, root planing, and curettage on the other side of the mouth. The misoprostol/placebo paste was administered as described above. Patients were instructed to apply the paste to the affected teeth four times daily for an additional six weeks. They were also instructed to the proper use of the rubber tip for six weeks.
At two weeks post-treatment, patients were contacted for adverse event monitoring and compliance with study drug administration. Six weeks following the second sub-gingival scaling, planing, and curettage procedure, patients returned to the clinical research facility for periodontal and adverse event assessments. Dental prophylaxis, including periodontal maintenance was repeated at the three month intervals, with final assessments performed at 52 weeks post-treatment.
The initial dose of the misoprostol/placebo paste was applied by the periodontist, and all subsequent doses were applied by the patient. Each affected tooth was wiped with a 2×2 sponge to dry the tissue. Then 0.2 ml of the paste was dispensed from the 10.0 ml syringe onto the tip of the finger and applied to each affected tooth. The patient then sipped a little water and gently flushed the paste to gel it. Patients were instructed not to eat anything for at least one hour.
1.5.1.2.1. Periodontal Pocket Probing Depth Periodontal probing depths were measured at baseline, at six weeks post-treatment, and at 3, 6, 9 and 12 months post-treatment. More recently, a larger study at three weeks post treatment was performed as described in Example
To measure the periodontal pocket probing depth, a manual University of Michigan off-set probe marked in millimeters was inserted into the pocket with the long axis parallel to the long axis of the tooth. Insertion was continued to the base of the pocket with gentle pressure until a distinct resistance was felt.
The measurement from the tip of the probe to the gingival margin (GM-BP, gingival margin to the base of the pocket) was recorded in millimeters. On measurements of proximal sites the gingival margin may cross the probe at an angle, and the highest point on the side of the probe was read. […]

[2] = cited from earlier work
[3] = system: mammalian calvarial cells; settings: in vitro culture; cited from earlier work
[4] = system: canine mandible alveolar bone; settings: cited from earlier work
[5] = target: albumin (Homo sapiens, UniProt P02768); settings: cited from earlier work
[6] = in vivo; cited from earlier work
[7] = 6 Weeks post-treatment, baseline pocket depth 5 mm
[8] = 6 Weeks post-treatment, baseline pocket depth 6 mm
[9] = 6 Weeks post-treatment, baseline pocket depth 7 mm
[10] = 6 Weeks post-treatment, baseline pocket depth 8 mm
[11] = 6 Weeks post-treatment, baseline pocket depth 9 mm
[12] = 6 Weeks post-treatment, baseline pocket depth 10 mm
[13] = 6 Weeks post-treatment, baseline pocket depth ≦4 mm
[14] = 52 Weeks post-treatment, baseline pocket depth 5 mm
[15] = 52 Weeks post-treatment, baseline pocket depth 6 mm
[16] = 52 Weeks post-treatment, baseline pocket depth 7 mm
[17] = 52 Weeks post-treatment, baseline pocket depth 8 mm
[18] = 52 Weeks post-treatment, baseline pocket depth 9 mm
[19] = 52 Weeks post-treatment, baseline pocket depth 10 mm
[20] = 52 Weeks post-treatment, baseline pocket depth ≦4 mm

Sequence of albumin (P02768 25-609, species assumed): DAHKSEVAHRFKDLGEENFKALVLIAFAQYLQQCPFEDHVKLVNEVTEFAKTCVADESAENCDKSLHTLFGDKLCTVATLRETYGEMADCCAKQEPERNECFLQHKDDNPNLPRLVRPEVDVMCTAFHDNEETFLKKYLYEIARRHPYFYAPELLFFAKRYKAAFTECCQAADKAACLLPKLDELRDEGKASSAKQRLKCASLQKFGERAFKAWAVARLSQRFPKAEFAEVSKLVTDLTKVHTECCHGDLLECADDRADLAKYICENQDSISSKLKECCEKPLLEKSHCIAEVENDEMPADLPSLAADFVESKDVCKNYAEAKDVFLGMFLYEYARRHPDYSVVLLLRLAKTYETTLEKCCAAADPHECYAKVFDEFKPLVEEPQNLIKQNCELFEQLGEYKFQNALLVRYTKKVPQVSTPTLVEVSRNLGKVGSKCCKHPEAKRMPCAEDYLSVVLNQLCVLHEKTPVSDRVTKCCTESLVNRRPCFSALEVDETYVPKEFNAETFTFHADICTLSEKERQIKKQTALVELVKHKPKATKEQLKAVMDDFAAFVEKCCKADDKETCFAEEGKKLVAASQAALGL

Structure (SMILES) | Mean Changes in Pocket Depths Using Patient as Inference [1, 7] | Mean Changes in Pocket Depths Using Patient as Inference [1, 8] | Mean Changes in Pocket Depths Using Patient as Inference [1, 9] | Mean Changes in Pocket Depths Using Patient as Inference [1, 10] | Mean Changes in Pocket Depths Using Patient as Inference [1, 11] | Mean Changes in Pocket Depths Using Patient as Inference [1, 12] | Mean Changes in Pocket Depths Using Patient as Inference [1, 13] | Mean Changes in Pocket Depths Using Patient as Inference [1, 14] | Mean Changes in Pocket Depths Using Patient as Inference [1, 15] | Mean Changes in Pocket Depths Using Patient as Inference [1, 16] | Mean Changes in Pocket Depths Using Patient as Inference [1, 17] | Mean Changes in Pocket Depths Using Patient as Inference [1, 18] | Mean Changes in Pocket Depths Using Patient as Inference [1, 19] | Mean Changes in Pocket Depths Using Patient as Inference [1, 20] | other results
CCCC[C@@](C)(O)C/C=C/[C@H]1[C@H](O)CC(=O)[C@@H]1CCCCCCC(=O)OC (racemic) [Misoprostol, methyl-(11α, 13E)-11,16-dihydroxy-16-methyl-9-oxoprost-13-en-1-oate] | 1.57 mm | 2.13 mm | 2.68 mm | 2.84 mm | 4.46* mm | 4.70 mm | 0.58 mm | 1.76*† mm | 2.49† mm | 3.28*† mm | 3.90*† mm | 5.06*† mm | 4.75 mm | 0.75*† mm | improvements in pocket depths compared to scaling, root planning and curettage alone ([1]; 52 weeks post-treatment): statistically significant improvements; mean changes in pocket depths compared to doxycycline+placebo ([1]; 52 weeks post-treatment, Wilcoxon rank-sum): statistically significantly greater improvements; tooth mobility ([1]; along with the decreases in pocket depth): decreases in tooth mobility; patients requiring surgical intervention to stop the progression of the disease ([1]; in vivo): none of the patients; reduction in pocket depth ([1]; original pocket depth 10 mm or greater, after 6 weeks): 40-50%; storage stability ([2]; dissolved in absolute alcohol (ethanol) and frozen): stable for at least a year; storage stability ([2]; dry state, stabilized with hydroxypropyl methyl cellulose): a couple years; stability of creams ([2]; in the presence of water, breaks down to prostaglandin A): creams last approximately only one week
C[C@H]1c2cccc(O)c2C(=O)C2=C(O)[C@]3(O)C(=O)C(C(N)=O)=C(O)[C@@H](N(C)C)[C@@H]3[C@@H](O)[C@@H]21 [Doxycycline] | 1.96* mm | 2.63* mm | 3.04* mm | 3.57* mm | 4.23* mm | 4.13 mm | 0.84 mm | 0.42 mm | 0.79 mm | 1.42 mm | 1.71 mm | 2.86 mm | 3.28 mm | −0.22* mm | improvement in pocket depth (from the Figures) ([1]; pocket depth originally 10 mm, Week 52): 3 mm; reduction in depth (from the Figures) ([1]; pocket depth originally 10 mm, at 6 weeks): ~5 mm
CCCCC[C@H](O)/C=C/[C@H]1[C@H](O)CC(=O)[C@@H]1CCCCCCC(=O)O [PGE1, prostaglandin E1] | – | – | – | – | – | – | – | – | – | – | – | – | – | – | formation of mineralized nodules [3]: increases the formation of mineralized nodules; new bone formation; thickness and appositional rate of alveolar bone ([4]; local application, adult dogs (Marks 1988)): increases the thickness and appositional rate of alveolar bone; alveolar bone height, cementum and periodontal ligaments ([4]; local delivery, premolars and molars of adult dogs (Marks 1994)): increases alveolar bone height and regenerates cementum and periodontal ligaments
CCCCC(C)(O)C/C=C/[C@H]1[C@H](O)CC(=O)[C@@H]1CCCCCCC(=O)O (mixture of isomers) [Misoprostolic acid] | – | – | – | – | – | – | – | – | – | – | – | – | – | – | albumin bound [5]: approximately 85%; half-life [6]: about 30 minutes
